Test results from patent US20250340551A1, “SMALL MOLECULE MODULATORS OF STAT6” (Gilead Sciences, Inc., priority 2024, published 2025).

Target: human STAT6 (Homo sapiens (Human), UniProt P42226)
Assay: Surface plasmon resonance assay (Biacore 8K, binding to immobilized STAT6)
Conditions: human STAT6 aa122-658, N-terminal His-tag, CM5 chip, 25° C.; geometric mean; read-out: STAT6 SPR Kd
Protocol: Biacore instruments from the 8K-series (Cytiva) were used, and measurements were performed at 25° C. Human STAT6 (truncated, aa122-658, with N-terminal His-tag, expressed in insect cells) was immobilized in the active flow cells on a CM5 chip using amine-coupling (default settings) at 10 μg/ml in 10 mM acetate buffer pH 5.5, at a contact time of 120-420 sec. and a flow rate of 10 μl/min. Reference flow cells were deactivated using blank immobilization. PBS-P+ (Cytiva) supplemented with 2% DMSO was used as running buffer, and solvent correction was applied. Compounds were tested by multi-cycle kinetics injections using a contact time of 60 sec., dissociation time of up to 300 sec., and a flow rate of 30 μl/min.
Solvent-corrected, reference-subtracted and blank-corrected data was processed and binding isotherms were fitted according to a single report point from each sensorgram (Standard: Late binding (5 sec. before injection end); alternative: Earlier report point according to binding profile). Data fitting was done both with unfixed Rmax and with Rmax fixed to the theoretical value* assuming 1:1 binding to allow processing of data from both weak and strong binders as well as to evaluate binding stoichiometry.
Positive controls were run at the beginning, during, and at the end of the screen to evaluate surface activity.

human STAT6, sequence (P42226 122-658): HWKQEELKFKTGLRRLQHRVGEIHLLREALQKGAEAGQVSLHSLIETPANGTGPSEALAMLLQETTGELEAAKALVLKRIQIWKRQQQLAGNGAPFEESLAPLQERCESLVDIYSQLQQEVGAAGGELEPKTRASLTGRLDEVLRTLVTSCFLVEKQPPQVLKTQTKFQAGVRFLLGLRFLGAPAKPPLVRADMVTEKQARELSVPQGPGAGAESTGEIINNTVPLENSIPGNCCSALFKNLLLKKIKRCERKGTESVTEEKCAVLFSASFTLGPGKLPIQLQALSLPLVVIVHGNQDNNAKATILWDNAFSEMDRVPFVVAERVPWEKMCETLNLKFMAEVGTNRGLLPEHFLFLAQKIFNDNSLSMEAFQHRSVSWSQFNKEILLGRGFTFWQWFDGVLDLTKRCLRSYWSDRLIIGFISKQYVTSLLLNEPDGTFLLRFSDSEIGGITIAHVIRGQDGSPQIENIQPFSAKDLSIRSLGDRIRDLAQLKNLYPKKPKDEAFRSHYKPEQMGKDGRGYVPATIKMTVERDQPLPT

| Kd [nM] | Compound |
| --- | --- |
| 36.7 | CNc1ccc(-c2ccnc3c2cc(CN2CC[C@H](c4ccc(C(=O)N(C)C)cc4)[C@@H](F)C2)n3C)cn1 (single isomer, unassigned) [Example 1s24] |
| 139 | CNc1ccc(-c2ccnc3c2cc(CN2CC[C@H](c4ccc(C(=O)N(C)C)cc4)[C@@H](F)C2)n3C)nc1 (stereo in doubt) [Example 1o18, 4-((3R,4R)-3-fluoro-1-((1-methyl-4-(5-(methylamino)pyridin-2-yl)-1H-pyrrolo[2,3-b]pyridin-2-yl)methyl)piperidin-4-yl)-N,N-dimethylbenzamide] |
| 1010 | CN(C)C(=O)c1ccc(C2CCN(Cc3cc4c(-c5c(C(F)F)cc(N)cc5C(F)F)ccnc4n3C)CC2)cc1 [Example 1k55, 4-[1-[[4-[4-Amino-2,6-bis(difluoromethyl)phenyl]-1-methyl-pyrrolo[2,3-b]pyridin-2-yl]methyl]-4-piperidyl]-N,N-dimethyl-benzamide] |
| 253 | CN(C)C(=O)c1ccc(C2CCN(Cc3cc4c(-c5ccc6[nH]cc(C(=O)C(F)(F)F)c6c5)ccnc4n3C)CC2)cc1 [Example 1m145, N,N-dimethyl-4-(1-((1-methyl-4-(3-(2,2,2-trifluoroacetyl)-1H-indol-5-yl)-1H-pyrrolo[2,3-b]pyridin-2-yl)methyl)piperidin-4-yl)benzamide] |
| 999 | CN(C)C(=O)c1ccc(C2CCN(Cc3cc4c(-c5ccc(N)c(C(F)(F)F)n5)ccnc4n3C)CC2)cc1 [Example 1k76, 4-[1-[[4-[5-Amino-6-(trifluoromethyl)-2-pyridyl]-1-methyl-pyrrolo[2,3-b]pyridin-2-yl]methyl]-4-piperidyl]-N,N-dimethyl-benzamide] |
| 2600 | CNc1cc(C)c(-c2ccnc3c2cc(CN2CCN(c4ccc(C(=O)N(C)C)cc4)CC2)n3C)cn1 [Example 1n8, N,N-Dimethyl-4-[4-[[1-methyl-4-[4-methyl-6-(methylamino)-3-pyridyl]pyrrolo[2,3-b]pyridin-2-yl]methyl]piperazin-1-yl]benzamide] |
| 54.1 | CCS(=O)(=O)n1c(CN2CCC(c3ccc(C(=O)N(C)C)cc3)CC2)cc2c(-c3ccc(NC)nc3)ccnc21 [Example 1x2, 4-[1-[[1-Ethylsulfonyl-4-[6-(methylamino)-3-pyridyl]pyrrolo[2,3-b]pyridin-2-yl]methyl]-4-piperidyl]-N,N-dimethyl-benzamide] |
| 731 | Cc1c(-c2ccnc3c2cc(CN2CCC(c4ccc(C(=O)N(C)C)cc4)CC2)n3C)cnc(N)c1C#N [Example 1k42, 4-[1-[[4-(6-Amino-5-cyano-4-methyl-3-pyridyl)-1-methyl-pyrrolo[2,3-b]pyridin-2-yl]methyl]-4-piperidyl]-N,N-dimethyl-benzamide] |
| 1700 | CN(C)C(=O)c1ccc(C2CCN(Cc3cc4c(-c5cnc(N)c(-c6nnn[nH]6)c5)ccnc4n3C)CC2)cc1 [Example 1k64, 4-[1-[[4-[6-Amino-5-(2H-tetrazol-5-yl)-3-pyridyl]-1-methyl-pyrrolo[2,3-b]pyridin-2-yl]methyl]-4-piperidyl]-N,N-dimethyl-benzamide] |
| 5280 | CNc1ccc(-c2ccnc3c2cc(CN2CCC(c4ccc(C(=O)N(C)C)cc4)CC2)n3CC(C)(C)C)cn1 [Example 1x3, 4-[1-[[1-(2,2-Dimethylpropyl)-4-[6-(methylamino)-3-pyridyl]pyrrolo[2,3-b]pyridin-2-yl]methyl]-4-piperidyl]-N,N-dimethyl-benzamide] |
| 16.3 | CN(C)C(=O)c1ccc(C2CCN(Cc3cc4c(-c5ccc(NCC(=O)O)nc5)ccnc4n3C)CC2)cc1 [Example 1k63, 2-[[5-[2-[[4-[4-(Dimethylcarbamoyl)phenyl]-1-piperidyl]methyl]-1-methyl-pyrrolo[2,3-b]pyridin-4-yl]-2-pyridyl]amino]acetic acid] |

The next lines start with the molecule.

| Compound | Kd [nM] |
| --- | --- |
| CNc1ccc(-c2ccnc3c2cc(CN2CCC(c4ccc(C(=O)N(C)C)cc4)CC2)n3C(C)C)cn1 [Example 1ad3, 4-[1-[[1-iso-Propyl-4-[6-(methylamino)-3-pyridyl]pyrrolo[2,3-b]pyridin-2-yl]methyl]-4-piperidyl]-N,N-dimethyl-benzamide] | 2730 |
| CNC(=O)c1ccc(-c2ccnc3c2cc(CN2CCC(c4ccc(C(=O)N(C)C)cc4)CC2)n3C)cc1 [Example 1j7, 4-[2-[[4-[4-(Dimethylcarbamoyl)phenyl]-1-piperidyl]methyl]-1-methyl-pyrrolo[2,3-b]pyridin-4-yl]-N-methyl-benzamide] | 3450 |
| [2H]C([2H])([2H])N(C(=O)c1ccc(C2=CCN([C@@H](C)c3cc4c(-c5ccc(N)nc5C#N)ccnc4n3C)CC2)c(C)c1)C([2H])([2H])[2H] [Example 1af25, (S)-4-(1-(1-(4-(6-amino-2-cyanopyridin-3-yl)-1-methyl-1H-pyrrolo[2,3-b]pyridin-2-yl)ethyl)-1,2,3,6-tetrahydropyridin-4-yl)-3-methyl-N,N-bis(methyl-d3)benzamide] | 361 |
| [2H]C([2H])([2H])N(C(=O)c1ccc(C2=CCN([C@H](C)c3cc4c(-c5ccc(N)cn5)ccnc4n3C)CC2)c(C)c1)C([2H])([2H])[2H] [Example 1af33, (R)-4-(1-(1-(4-(5-aminopyridin-2-yl)-1-methyl-1H-pyrrolo[2,3-b]pyridin-2-yl)ethyl)-1,2,3,6-tetrahydropyridin-4-yl)-3-methyl-N,N-bis(methyl-d3)benzamide] | 15.4 |
| Cc1nc(-c2ccnc3c2cc(CN2CCC(c4ccc(C(=O)N(C)C)cc4)CC2)n3C)cnc1N [Example 1k20, 4-[1-[[4-(5-Amino-6-methyl-pyrazin-2-yl)-1-methyl-pyrrolo[2,3-b]pyridin-2-yl]methyl]-4-piperidyl]-N,N-dimethyl-benzamide] | 1510 |
| CN(C)C(=O)c1ccc(C2CCN(Cc3cc4c(-c5cnc(N)c(C(F)F)c5)ccnc4n3C)CC2)cc1 [Example 1k24, 4-[1-[[4-[6-Amino-5-(difluoromethyl)-3-pyridyl]-1-methyl-pyrrolo[2,3-b]pyridin-2-yl]methyl]-4-piperidyl]-N,N-dimethyl-benzamide] | 336 |
| C[C@@H](c1cc2c(-c3ccc(N)nc3C#N)ccnc2n1C)N1CC=C(c2ccc(C(=O)N(C)C)cc2)CC1 [Example 1af21, (S)-4-(1-(1-(4-(6-amino-2-cyanopyridin-3-yl)-1-methyl-1H-pyrrolo[2,3-b]pyridin-2-yl)ethyl)-1,2,3,6-tetrahydropyridin-4-yl)-N,N-dimethylbenzamide] | 8660 |
| CN(C)C(=O)c1ccc(C2CCN(Cc3cc4c(-c5ccc(N)nc5C(F)(F)F)ccnc4n3C)CC2)cc1 [Example 1k17, 4-[1-[[4-[6-Amino-2-(trifluoromethyl)-3-pyridyl]-1-methyl-pyrrolo[2,3-b]pyridin-2-yl]methyl]-4-piperidyl]-N,N-dimethyl-benzamide] | 212 |
| [2H]C([2H])([2H])N(C(=O)c1ccc(C2CCN([C@@H](C)c3cc4c(-c5ccc(N)nc5C#N)ccnc4n3C)CC2)cc1)C([2H])([2H])[2H] [Example 1af29, (S)-4-(1-(1-(4-(6-Amino-2-cyanopyridin-3-yl)-1-methyl-1H-pyrrolo[2,3-b]pyridin-2-yl)ethyl)-piperidin-4-yl)-N,N-bis(methyl-d3)benzamide] | 645 |
| CCOC(=O)c1nc(N)ccc1-c1ccnc2c1cc(CN1CCC(c3ccc(C(=O)N(C)C)cc3)CC1)n2C [Example 1k35, Ethyl 6-amino-3-[2-[[4-[4-(dimethylcarbamoyl)phenyl]-1-piperidyl]methyl]-1-methyl-pyrrolo[2,3-b]pyridin-4-yl]pyridine-2-carboxylate] | 11 |
| CN(C)C(=O)c1ccc(C2CCN(Cc3cc4c(-c5cnc(N)cn5)ccnc4n3C)CC2)cc1 [Example 1k8, 4-[1-[[4-(5-Aminopyrazin-2-yl)-1-methyl-pyrrolo[2,3-b]pyridin-2-yl]methyl]-4-piperidyl]-N,N-dimethyl-benzamide] | 457 |
| CNC(=O)c1ccc(-c2ccnc3c2cc(CN2CCN(c4ccc(C(=O)N(C)C)cc4)CC2)n3C)cc1 [Example 1j6, 4-[2-[[4-[4-(Dimethylcarbamoyl)phenyl]piperazin-1-yl]methyl]-1-methyl-pyrrolo[2,3-b]pyridin-4-yl]-N-methyl-benzamide] | 37200 |
| Cc1cc(C(=O)N(C)C)ccc1C1=CCN([C@H](C)c2cc3c(-c4ccc(N)cn4)ccnc3n2C)CC1 [Example 1af34, (R)-4-(1-(1-(4-(5-aminopyridin-2-yl)-1-methyl-1H-pyrrolo[2,3-b]pyridin-2-yl)ethyl)-1,2,3,6-tetrahydropyridin-4-yl)-N,N,3-trimethylbenzamide] | 18.6 |
| [2H]C([2H])([2H])N(C(=O)c1ccc(C2CCN([C@H](C)c3cc4c(-c5ccc(N)nc5C#N)ccnc4n3C)CC2)cc1)C([2H])([2H])[2H] [Example 1af30, (R)-4-(1-(1-(4-(6-amino-2-cyanopyridin-3-yl)-1-methyl-1H-pyrrolo[2,3-b]pyridin-2-yl)ethyl)piperidin-4-yl)-N,N-bis(methyl-d3)benzamide] | 24.1 |
| CN(C)C(=O)c1ccc(C2CCN(Cc3cc4c(-c5cnc(N)c(CO)c5)ccnc4n3C)CC2)cc1 [Example 1k34, 4-[1-[[4-[6-Amino-5-(hydroxymethyl)-3-pyridyl]-1-methyl-pyrrolo[2,3-b]pyridin-2-yl]methyl]-4-piperidyl]-N,N-dimethyl-benzamide] | 245 |
